Key:
[1] = system: bacterial growth in kaolin slurry; test: Kaolin slurry preservation test: biocide-dosed 65% solids slurry plated on standard method agar, samples as treated; format: cell-based, bacteria
Procedure: (§1) In the comparative testing, dry kaolin was mixed with water to achieve a 65% solid slurry material. This material contained no biocide. The slurry was then split into 200 gram aliquots and dosed with different biocides at different concentration as shown in Tables 1-3. All samples were kept at 50° C. until the end of the testing, which was up to 28 days.
A number of different and known biocides were used in the study and they include glutaraldehyde (glute), 1,2 benzithiazolin-3-one (BIT), tetrahydro-3-5-methyl-2H-1,3,5-thiadizine-2-thione (thione), isothiazoline (ISO), bronopol (BNPD) or orthophenyl phenate (OPP). For shorthand purposes, the study refers to the tradename of the biocide, which is found in the above listing of the biocides. Metam sodium is designated as SMDC and MDTCMA is used without change
(§2) The protocol for the testing of each sample is as follows: • 1) dosed with a recorded level of biocide; • 2) mixed for 24 hours contact time and plated using standard method agar for bacterial growth; • 3) remixed daily for 1 hour and retested for bacterial growth at Day 3; • 4) remixed daily for 1 hour and retested for bacterial growth at Day 7; • 5) remixed daily for 1 hour and retested for bacterial growth at Day 14; • 6) on day 20, samples were split into two containers: one container was inoculated (or challenged) with ˜10^5 cfu/ml bacteria, the other was left “as treated”, the challenge material was obtained from a contaminated kaolin product and is assumed to be representative of the types of bacteria that are seen in the kaolin industry, and the two sets of samples were prepared for Day 21 testing; • 7) both sets were remixed daily for 1 hour and retested for bacterial growth at Day 21; and • 8) both sets remixed daily for 1 hour and retested for bacterial growth at Day 28.
Different contact times were used to see how quickly the bacterial population was effected by the biocide.

[2] = system: bacteria from a contaminated kaolin product; test: Kaolin slurry preservation test, challenge: on day 20 samples inoculated with ~10^5 cfu/ml bacteria from a contaminated kaolin product; format: cell-based
Procedure: as §1, §2

CN1CSC(=S)N(C)C1 [24% Thione, tetrahydro-3,5-dimethyl-2H-1,3,5-thiadiazine-2-thione, reference compound] was tested, and the “Log Red, contact time 1 day” value ([1]; 500 ppm, Table 2) was 0, the “Log Red, contact time 3 day” value ([1]; 500 ppm, Table 2) was 3 and the “Log Red, contact time 7 day” value ([1]; 500 ppm, Table 2) was 4. For the same compound, the “Log Red, contact time 14 day” value ([1]; 500 ppm, Table 2) was 4, the “Log Red, contact time 21 day” value ([1]; 500 ppm, Table 2) was 5 and the “Log Red, contact time 28 day” value ([1]; 500 ppm, Table 2) was 5. For the same compound, the “cfu/mL, contact time 1 day” value ([1]; 500 ppm, Table 2) was 13,340,000 cfu/mL, the “cfu/mL, contact time 3 day” value ([1]; 500 ppm, Table 2) was 11,000 cfu/mL and the “cfu/mL, contact time 7 day” value ([1]; 500 ppm, Table 2) was 5,600 cfu/mL. The “cfu/mL, contact time 14 day” value ([1]; 500 ppm, Table 2) was 2,100 cfu/mL, the “cfu/mL, contact time 21 day” value ([1]; 500 ppm, Table 2) was 1,100 cfu/mL and the “cfu/mL, contact time 28 day” value ([1]; 500 ppm, Table 2) was 800 cfu/mL. For the same compound, the “Log Red, contact time 1 day” value ([1]; 500 ppm, Table 3) was 2, the “Log Red, contact time 3 day” value ([1]; 500 ppm, Table 3) was 2 and the “Log Red, contact time 7 day” value ([1]; 500 ppm, Table 3) was 2. The “Log Red, contact time 14 day” value ([1]; 500 ppm, Table 3) was 3, the “Log Red, contact time 21 day” value ([1]; 500 ppm, Table 3) was 2 and the “Log Red, contact time 28 day” value ([1]; 500 ppm, Table 3) was 2. The “cfu/mL, contact time 1 day” value ([1]; 500 ppm, Table 3) was 3,300 cfu/mL, the “cfu/mL, contact time 3 day” value ([1]; 500 ppm, Table 3) was 100 cfu/mL and the “cfu/mL, contact time 7 day” value ([1]; 500 ppm, Table 3) was 100 cfu/mL. For the same compound, the “cfu/mL, contact time 14 day” value ([1]; 500 ppm, Table 3) was 100 cfu/mL, the “cfu/mL, contact time 21 day” value ([1]; 500 ppm, Table 3) was 100 cfu/mL and the “cfu/mL, contact time 28 day” value ([1]; 500 ppm, Table 3) was 100 cfu/mL. For the same compound, the “Log Red, contact time 1 day” value ([1]; 1000 ppm, Table 2) was 1, the “Log Red, contact time 3 day” value ([1]; 1000 ppm, Table 2) was 4 and the “Log Red, contact time 7 day” value ([1]; 1000 ppm, Table 2) was 4. For the same compound, the “Log Red, contact time 14 day” value ([1]; 1000 ppm, Table 2) was 5, the “Log Red, contact time 21 day” value ([1]; 1000 ppm, Table 2) was 5 and the “Log Red, contact time 28 day” value ([1]; 1000 ppm, Table 2) was 5. The “cfu/mL, contact time 1 day” value ([1]; 1000 ppm, Table 2) was 6,670,000 cfu/mL, the “cfu/mL, contact time 3 day” value ([1]; 1000 ppm, Table 2) was 6,800 cfu/mL and the “cfu/mL, contact time 7 day” value ([1]; 1000 ppm, Table 2) was 2,600 cfu/mL. For the same compound, the “cfu/mL, contact time 14 day” value ([1]; 1000 ppm, Table 2) was 1,200 cfu/mL, the “cfu/mL, contact time 21 day” value ([1]; 1000 ppm, Table 2) was 300 cfu/mL and the “cfu/mL, contact time 28 day” value ([1]; 1000 ppm, Table 2) was 200 cfu/mL. The “Log Red, contact time 1 day” value ([1]; 1000 ppm, Table 3) was 3, the “Log Red, contact time 3 day” value ([1]; 1000 ppm, Table 3) was 2 and the “Log Red, contact time 7 day” value ([1]; 1000 ppm, Table 3) was 2. The “Log Red, contact time 14 day” value ([1]; 1000 ppm, Table 3) was 3, the “Log Red, contact time 21 day” value ([1]; 1000 ppm, Table 3) was 2 and the “Log Red, contact time 28 day” value ([1]; 1000 ppm, Table 3) was 2. The “cfu/mL, contact time 1 day” value ([1]; 1000 ppm, Table 3) was 100 cfu/mL, the “cfu/mL, contact time 3 day” value ([1]; 1000 ppm, Table 3) was 100 cfu/mL and the “cfu/mL, contact time 7 day” value ([1]; 1000 ppm, Table 3) was 100 cfu/mL. The “cfu/mL, contact time 14 day” value ([1]; 1000 ppm, Table 3) was 100 cfu/mL, the “cfu/mL, contact time 21 day” value ([1]; 1000 ppm, Table 3) was 100 cfu/mL and the “cfu/mL, contact time 28 day” value ([1]; 1000 ppm, Table 3) was 100 cfu/mL. For the same compound, the “Log Red, 21 day Challenge” value ([2]; 500 ppm, Table 2) was 3, the “Log Red, 28 day Challenge” value ([2]; 500 ppm, Table 2) was 4 and the “cfu/mL, 21 day Challenge” value ([2]; 500 ppm, Table 2) was 39,000 cfu/mL. The “cfu/mL, 28 day Challenge” value ([2]; 500 ppm, Table 2) was 3,400 cfu/mL, the “Log Red, 21 day Challenge” value ([2]; 500 ppm, Table 3) was 5 and the “Log Red, 28 day Challenge” value ([2]; 500 ppm, Table 3) was 5. The “cfu/mL, 21 day Challenge” value ([2]; 500 ppm, Table 3) was 100 cfu/mL, the “cfu/mL, 28 day Challenge” value ([2]; 500 ppm, Table 3) was 100 cfu/mL and the “Log Red, 21 day Challenge” value ([2]; 1000 ppm, Table 2) was 5. The “Log Red, 28 day Challenge” value ([2]; 1000 ppm, Table 2) was 4, the “cfu/mL, 21 day Challenge” value ([2]; 1000 ppm, Table 2) was 900 cfu/mL and the “cfu/mL, 28 day Challenge” value ([2]; 1000 ppm, Table 2) was 1,500 cfu/mL. The “Log Red, 21 day Challenge” value ([2]; 1000 ppm, Table 3) was 5, the “Log Red, 28 day Challenge” value ([2]; 1000 ppm, Table 3) was 5 and the “cfu/mL, 21 day Challenge” value ([2]; 1000 ppm, Table 3) was 100 cfu/mL. For the same compound, the “cfu/mL, 28 day Challenge” value ([2]; 1000 ppm, Table 3) was 100 cfu/mL and the “biocide effectiveness after inoculation, overall result of the studies” value ([2]; after inoculation) was “most effective biocides”.
